Reference: patent EP0605261B1, “Use of a flavone derivative as taste modifier and a method of modifying taste” (SAN-EI GEN F.F.I., INC., priority 1992, dated 1994)

Experiments:
Assay type in all cases: in vivo
[1] = Sensory test: body and deliciousness (casing boiled fish paste); settings: 0.0001 (g) Compound 11, 8 panellers
Procedure: Compound 11 of the flavone derivative (I) was used as a taste modifier. Ground fish meat, salt, starch, water and the flavone derivative (I) were mixed. In accordance with a general method, casing boiled fish paste containing the flavone derivative (I) was prepared. Alternatively, flavone derivative (I) free casing boiled fish paste was prepared by the same method as a control.
Sensory tests for obtained casing boiled fish paste were conducted by 8 panellers comprised of 6 males and 2 females at the age from 20 to 40.

[2] = Sensory test: refreshness, its continuity and quality of taste (refreshing drink); settings: 0.2 g flavor composition H (0.000001(g) Compound 11) vs G, 8 panellers
Procedure: Compound 11 of the flavone derivative (I) was used as a taste modifier. Refreshing drink containing the above flavor composition G (control) or H (containing the flavone derivative (I)) was prepared.
First, 10 g of fructose/glucose sugar solution, 0.1 g of citric acid (crystal), 0.2 g of the flavor composition G and 88.5 g of water were mixed to dissolve, followed by heating up to 93 °C, immediately transmitted to a bottle and sealed. Then, it was cooled in water, thereby preparing flavone derivative (I) free refreshing drink.
Alternatively, flavone derivative (I)-containing refreshing drink was prepared by the same method using the flavor composition H instead of the flavor composition G.
Sensory tests for obtained refreshing drink were carried out by 8 panellers comprised of 6 males and 2 females at the age from 20 to 40.

[3] = Sensory test (limiting method): enhancing the sourness of acid sugar solution; design: key: (equivalent citric acid content / citric acid content with flavone) × 100; settings: citric acid 1.000 (g), flavone derivative (I) 0.00001 (g), 8 panellers; for Value of enhancing the sourness Ascending system: ascending system (from low concentration); for Value of enhancing the sourness Descending system: descending system (from high concentration)
Procedure: Compounds 1 to 11 of the flavone derivative (I) were used as a taste modifier to prepare acid sugar solution having compositions as follows:
As a control, 21 types of acid sugar solutions are used. In the control, the flavone derivative (I) is removed from the above composition and the content of citric acid is varied from 1.000 g to 1.500 g by 0.025 g.
Sensory tests were carried out by 8 trained panellers in accordance with a limiting method described in the Hand Book of Sensory evaluation, edited by Research Committee of sensory evaluation, Union of Japanese Scientists and Engineers, p.398 (1973) in use of acid sugar solutions containing respective flavone derivatives (I) and another acid sugar solutions having a various content of citric acid.
As for the content of citric acid, two types sensory tests were conducted, one was an ascending system (testing from solution with low concentration) and another was a descending system (testing from solution with high concentration).
The sensory evaluation was made by a value of enhancing the sourness. The value of enhancing the sourness was calculated by the following formula based on the content of citric acid in acid sugar solutions with varied concentration of citric acid, which has an equivalent stimulation with an acid sugar solution containing the flavone derivative (I) Value of enhancing the sourness = (content of citric acid in acid sugar solution sensed as an equivalent stimulation/content of citric acid in acid sugar solution containing the flavone derivative (I)) x 100 [formula]

[4] = Sensory test: sweetness and savor (ice cream); settings: 0.00001 w/w%, 10 panellers
Procedure: Compound 2 of the flavone derivative (I) was used as a taste modifier. Ice cream containing 5 w/w% of sugar, 12 w/w% of fructose condensed milk and 10 w/w% of thick malt syrup as sweetening agents was used as a control. The control and ice cream containing 0.00001 w/w% of the flavone derivative (I) were made by a general method. Sensory tests for the sweetness and the savor were conducted by 10 trained panellers comprised of 6 males and 4 females at the age from 20 to 40.

[5] = Five points evaluation test: saltiness and brackish taste modifying effect, salt / sodium L-glutamate solution; settings: average points of 5 panellers (2: no changes); for Saltiness Modifying Effect: Salt
Procedure: Compound 3 of the flavone derivative (I) was used as a taste modifier. […] Alternatively, sample solutions were prepared by adding 1, 0.1, 0.01 ppm of Compound 3 to the standard solutions, respectively.
Sensory tests were conducted by 5 trained panellers to examine saltiness modifying effect (so called saltiness adapting effect) and brackish taste modifying effect.
(§1) Each sample solution was evaluated assuming that the standard solution has the point of 2.

[6] = Sensory test: stimulative smell associated with acetic acid and viscosity (toothpaste with karaya gum); settings: 0.0000001 part by weight of Compound 3 to 1 part, 9 panellers
Procedure: Sorbitol was heated to 70°C, followed by adding sodium saccharine and silica slowly thereto and by stirring well. Then, water previously heated to 70°C, karaya gum, sodium lauryl sulfate and sodium hydroxide were added sequentially while stirring. Finally, flavor was added thereto to prepare toothpaste as a control. Alternatively, flavone derivative (I)-containing toothpaste was prepared by adding 0.0000001 part by weight of Compound 3 of the flavone derivative (I) to 1 part by weight of similarly prepared toothpaste.
Sensory tests for obtained toothpaste were conducted by 9 panellers comprised of 6 males and 3 females.

[7] = Sensory test: sweetness and savor (sponge cake); settings: 22 w/w% white sugar, 0.0001 w/w%, 10 panellers
Procedure: Compound 4 of the flavone derivative (I) was used as a taste modifier and 22 w/w% of white sugar was used as a sweetening agent. In accordance with a general method, sponge cake containing 0.0001 w/w% of the flavone derivative (I) and flavone derivative (I) free sponge cake were prepared. Sensory tests for the sweetness and the savor were conducted by 10 panellers comprised of 6 males and 4 females at the age from 20 to 40.

[8] = Sensory test: enhancing the sourness (refreshing drink); settings: 0.0002 (g) Compound 4, vs control, 8 panellers
Procedure: Compound 4 of the flavone derivative (I) was used as a taste modifier. Raw materials described below were mixed and stirred to dissolve. The solution was heated up to 93°C, immediately transmitted to a bottle and sealed. Then, it was cooled in water, thereby preparing refreshing drink having compositions as follows. A control was prepared by eliminating the compound 4 from the raw materials.
Sensory tests of obtained refreshing drink were carried out by 8 panellers.

[9] = Five points evaluation test: saltiness and savor modifying effect (toothpaste containing salt); settings: average points of 5 panellers (2: no changes)
Procedure: Compound 7 of the flavone derivative (I) was used as a taste modifier. To commercially available toothpaste (containing salt), the flavone derivative (I) was added in the amount of 1, 0.1 and 0.01 ppm respectively to prepare samples. Sensory tests were carried out for modifying effects of the saltiness and the savor of toothpaste. Flavone derivative (I) free toothpaste was used as a standard substance.
The sensory tests were conducted by 5 trained panellers to examine saltiness modifying effect (so called saltiness adapting effect) and savor modifying effect.
as §1

[10] = Sensory test: savor (boiled fish paste); settings: 1.5 w/w% glycine, 0.0001 w/w%, 10 panellers
Procedure: Compound 7 of the flavone derivative (I) was used as a taste modifier. In accordance with a general method, boiled fish paste containing 0.0001 w/w% of the flavone derivative (I) and flavone derivative (I) free boiled fish paste were prepared in use of 1.5 w/w% glycine. Sensory tests for the savor were conducted by 10 panellers comprised of 6 males and 4 females at the age from 20 to 40.

[11] = Sensory test: stimulative smell associated with acetic acid (mayonnaise); settings: 0.001 mg of Compound 8 added, 9 panellers
Procedure: Compound 8 of the flavone derivative (I) was used as a taste modifier. First, sugar, sodium glutamate and carrageenan were dissolved in water, followed by adding raw vinegar, salt and yolk. Then, corn salad oil was added portionwise while stirring, and emulsified by the use of colloid mill, thereby preparing mayonnaise as a control. Alternatively, flavone derivative (I)-containing mayonnaise was prepared by adding 0.001 mg of Compound 8 to mayonnaise that was similarly prepared.
Sensory tests for obtained mayonnaise were conducted by 9 panellers comprised of 6 males and 3 females.

3,3',4',5,5',6,7,8-octamethoxyflavone [Compound 11]
Body: Those who sensed no difference [1]: 2 number of people
Body: Those who sensed the flavone derivative (I) additive is better [1]: 6 number of people
Deliciousness: Those who sensed no difference [1]: 1 number of people
Deliciousness: Those who sensed the flavone derivative (I) additive is better [1]: 7 number of people
Quality of taste: Those who sensed no difference [1]: 1 number of people
Quality of taste: Those who sensed the flavone derivative (I) additive is better [1]: 7 number of people
Continuity of refreshness: Those who sensed H additive is better [2]: 8 number of people
Continuity of refreshness: Those who sensed no difference [2]: 0 number of people
Quality of taste: Those who sensed H additive is better [2]: 6 number of people
Quality of taste: Those who sensed no difference [2]: 2 number of people
Refreshness: Those who sensed H additive is better [2]: 7 number of people
Refreshness: Those who sensed no difference [2]: 1 number of people
Value of enhancing the sourness Ascending system [3]: 125
Value of enhancing the sourness Descending system [3]: 128

COc1ccc(-c2cc(=O)c3c(OC)c(OC)c(OC)c(OC)c3o2)cc1OC [Compound 2, 3',4',5,6,7,8-hexamethoxyflavone]
the sweetness and the savor, as sensed by all the panellers [4]: better than that of the control
Value of enhancing the sourness Ascending system [3]: 118
Value of enhancing the sourness Descending system [3]: 123

COc1ccc(-c2cc(=O)c3c(OC)c(OC)c(OC)c(OC)c3o2)cc1 [Compound 3, 4',5,6,7,8-pentamethoxyflavone]
Brackish Taste Modifying Effect ([5]; 0.01 ppm, Salt 1 %): 3.6
Brackish Taste Modifying Effect ([5]; 0.01 ppm, Salt 3 %): 3.6
Brackish Taste Modifying Effect ([5]; 0.01 ppm, Salt 5 %): 3.4
Brackish Taste Modifying Effect ([5]; 0.01 ppm, Salt 10 %): 3.0
Saltiness Modifying Effect ([5]; 0.01 ppm, sodium L-glutamate 1 %): 3.6
Saltiness Modifying Effect ([5]; 0.01 ppm, sodium L-glutamate 3 %): 3.8
Saltiness Modifying Effect ([5]; 0.01 ppm, sodium L-glutamate 5 %): 3.4
Saltiness Modifying Effect ([5]; 0.01 ppm, sodium L-glutamate 10 %): 3.0
Brackish Taste Modifying Effect ([5]; 0.10 ppm, Salt 1 %): 4.0
Brackish Taste Modifying Effect ([5]; 0.10 ppm, Salt 3 %): 3.8
Brackish Taste Modifying Effect ([5]; 0.10 ppm, Salt 5 %): 3.6
Brackish Taste Modifying Effect ([5]; 0.10 ppm, Salt 10 %): 3.4
Saltiness Modifying Effect ([5]; 0.10 ppm, sodium L-glutamate 1 %): 4.0
Saltiness Modifying Effect ([5]; 0.10 ppm, sodium L-glutamate 3 %): 3.8
Saltiness Modifying Effect ([5]; 0.10 ppm, sodium L-glutamate 5 %): 3.6
Saltiness Modifying Effect ([5]; 0.10 ppm, sodium L-glutamate 10 %): 3.4
Brackish Taste Modifying Effect ([5]; 1.00 ppm, Salt 1 %): 4.4
Brackish Taste Modifying Effect ([5]; 1.00 ppm, Salt 3 %): 4.0
Brackish Taste Modifying Effect ([5]; 1.00 ppm, Salt 5 %): 4.0
Brackish Taste Modifying Effect ([5]; 1.00 ppm, Salt 10 %): 3.8
Saltiness Modifying Effect ([5]; 1.00 ppm, sodium L-glutamate 1 %): 4.4
Saltiness Modifying Effect ([5]; 1.00 ppm, sodium L-glutamate 3 %): 4.0
Saltiness Modifying Effect ([5]; 1.00 ppm, sodium L-glutamate 5 %): 4.0
Saltiness Modifying Effect ([5]; 1.00 ppm, sodium L-glutamate 10 %): 3.8
Stimulative smell: Those who sensed no difference [6]: 1 number of people
Stimulative smell: Those who sensed the flavone derivative (I) additive is reduced [6]: 8 number of people
Value of enhancing the sourness Ascending system [3]: 120
Value of enhancing the sourness Descending system [3]: 123

COc1ccc(-c2cc(=O)c3c(OC)cc(OC)c(OC)c3o2)cc1OC [Compound 4, 3',4',5,7,8-pentamethoxyflavone]
the sweetness and the savor, as sensed by all the panellers [7]: better than that of the control
Value of enhancing the sourness Ascending system [3]: 117
Value of enhancing the sourness Descending system [3]: 119
quality of taste [8]: significantly improved
taste of fruit juice and the sourness [8]: stronger than the control

COc1ccc(-c2oc3c(OC)c(OC)cc(OC)c3c(=O)c2OC)cc1OC [Compound 7, 3,3',4',5,7,8-hexamethoxyflavone]
Saltiness and Savor Modifying Effect: Saltiness ([9]; 0.01 ppm): 2.2
Saltiness and Savor Modifying Effect: Savor ([9]; 0.01 ppm): 2.2
Saltiness and Savor Modifying Effect: Saltiness ([9]; 0.10 ppm): 2.6
Saltiness and Savor Modifying Effect: Savor ([9]; 0.10 ppm): 2.4
Saltiness and Savor Modifying Effect: Saltiness ([9]; 1.00 ppm): 3.4
Saltiness and Savor Modifying Effect: Savor ([9]; 1.00 ppm): 3.0
Value of enhancing the sourness Ascending system [3]: 116
Value of enhancing the sourness Descending system [3]: 119
the savor, as sensed by all the panellers [10]: better than that of the control

COc1ccc(-c2cc(=O)c3c(OC)cc(OC)cc3o2)cc1 [Compound 8, 4',5,7-trimethoxyflavone]
Stimulative smell: Those who sensed difference exists [11]: 7 number of people
Stimulative smell: Those who sensed no difference [11]: 2 number of people
Value of enhancing the sourness Ascending system [3]: 118
Value of enhancing the sourness Descending system [3]: 120
